Laboratory results: ChEMBL document CHEMBL1629642, “In vitro efficacy of ST246 against smallpox and monkeypox” (Antimicrob Agents Chemother, 2009)
The source made the active and inactive calls.

Legend:
Monkeypox virus [1] = test: Antiviral activity against Monkeypox virus V77-I-823 infected in african green monkey BSC-40 cells at 0.015 uM by IHC staining-based comet tail reduction assay; type: functional, organism-based
Monkeypox virus [2] = test: Antiviral activity against Monkeypox virus V78-I-3945 infected in african green monkey BSC-40 cells assessed as reduction in virus-induced cytopathic effect at 0.005 uM; type: functional, organism-based
Monkeypox virus [3] = test: Antiviral activity against Monkeypox virus 2003-USA-039 infected in african green monkey BSC-40 cells assessed as reduction in viral plaque formation at 0.015 uM uM by IHC staining-based plaque reduction assay; type: functional
Variola virus [4] = test: Antiviral activity against Variola virus SLN68-258 infected in african green monkey BSC-40 cells at 0.005 uM by IHC staining-based comet tail reduction assay; type: functional, organism-based
Variola virus [5] = test: microbe, parasite or virus in culture; conditions: SUD47-juba, BSC-40
Variola virus [6] = test: Antiviral activity against Variola virus SUD47-juba infected in african green monkey BSC-40 cells assessed as reduction in viral plaque formation at 0.015 uM uM by IHC staining-based plaque reduction assay; type: functional
Variola virus [7] = test: Antiviral activity against Variola virus BRZ66-39 infected in african green monkey BSC-40 cells at 0.05 to 0.5 uM by IHC staining-based comet tail reduction assay; type: functional, organism-based
Monkeypox virus [8] = test: Antiviral activity against Monkeypox virus 2003-USA-039 infected in african green monkey BSC-40 cells at 0.005 uM by IHC staining-based comet tail reduction assay; type: functional, organism-based
Variola virus [9] = test: Antiviral activity against Variola virus BSH74-sol infected in african green monkey BSC-40 cells at 0.05 to 0.5 uM by IHC staining-based comet tail reduction assay; type: functional, organism-based
Monkeypox virus [10] = test: Antiviral activity against Monkeypox virus V1979-I-005 infected in african green monkey BSC-40 cells at 0.05 to 0.5 uM by IHC staining-based comet tail reduction assay; type: functional, organism-based
Variola virus [11] = test: Antiviral activity against Variola virus NEP73-175 infected in african green monkey BSC-40 cells assessed as reduction in viral plaque formation at 0.015 uM uM by IHC staining-based plaque reduction assay; type: functional
Variola virus [12] = test: microbe, parasite or virus in culture; conditions: SLN68-258, BSC-40
Monkeypox virus [13] = test: Antiviral activity against Monkeypox virus V1979-I-005 infected in african green monkey BSC-40 cells assessed as reduction in virus-induced cytopathic effect at 0.015 uM; type: functional, organism-based
Variola virus [14] = test: Antiviral activity against Variola virus BSH74-sol infected in african green monkey BSC-40 cells at 0.005 uM by IHC staining-based comet tail reduction assay; type: functional, organism-based
Variola virus [15] = test: Antiviral activity against Variola virus SLN68-258 infected in african green monkey BSC-40 cells at 0.05 to 5 uM assessed as reduction in virus-induced cytopathic effect; type: functional, organism-based
Variola virus [16] = test: Antiviral activity against Variola virus BRZ66-39 infected in african green monkey BSC-40 cells at 0.005 uM assessed as reduction in virus-induced cytopathic effect; type: functional, organism-based
Monkeypox virus [17] = test: Antiviral activity against Monkeypox virus V78-I-3945 infected in african green monkey BSC-40 cells assessed as reduction in viral plaque formation at 0.015 uM uM by IHC staining-based plaque reduction assay; type: functional
Variola virus [18] = test: Antiviral activity against Variola virus BRZ66-39 infected in african green monkey BSC-40 cells at 0.005 uM by IHC staining-based comet tail reduction assay; type: functional, organism-based
Monkeypox virus [19] = test: Antiviral activity against Monkeypox virus V1979-I-005 infected in african green monkey BSC-40 cells at 0.005 uM by IHC staining-based comet tail reduction assay; type: functional, organism-based
Monkeypox virus [20] = test: Antiviral activity against Monkeypox virus 2003-USA-039 infected in african green monkey BSC-40 cells assessed as reduction in virus-induced cytopathic effect at 0.005 uM; type: functional, organism-based
Monkeypox virus [21] = test: Antiviral activity against Monkeypox virus V78-I-3945 infected in african green monkey BSC-40 cells at 0.05 to 0.5 uM by IHC staining-based plaque reduction assay; type: functional, organism-based
Variola virus [22] = test: Antiviral activity against Variola virus NEP73-175 infected in african green monkey BSC-40 cells at 0.005 uM assessed as reduction in virus-induced cytopathic effect; type: functional, organism-based
Monkeypox virus [23] = test: Antiviral activity against Monkeypox virus V1979-I-005 infected in african green monkey BSC-40 cells assessed as reduction in virus-induced cytopathic effect at 0.05 to 5 uM; type: functional, organism-based
Variola virus [24] = test: Antiviral activity against Variola virus BRZ66-39 infected in african green monkey BSC-40 cells at 0.015 uM by IHC staining-based comet tail reduction assay; type: functional, organism-based
Variola virus [25] = test: Antiviral activity against Variola virus NEP73-175 infected in african green monkey BSC-40 cells at 0.05 to 0.5 uM by IHC staining-based plaque reduction assay; type: functional, organism-based
Monkeypox virus [26] = test: Antiviral activity against Monkeypox virus V77-I-823 infected in african green monkey BSC-40 cells at 0.005 uM by IHC staining-based comet tail reduction assay; type: functional, organism-based
Monkeypox virus [27] = test: Antiviral activity against Monkeypox virus V81-I-179 infected in african green monkey BSC-40 cells at 0.05 to 0.5 uM by IHC staining-based plaque reduction assay; type: functional, organism-based
Monkeypox virus [28] = test: Antiviral activity against Monkeypox virus V77-I-823 infected in african green monkey BSC-40 cells assessed as reduction in virus-induced cytopathic effect at 0.015 uM; type: functional, organism-based
Variola virus [29] = test: Antiviral activity against Variola virus SUD47-juba infected in african green monkey BSC-40 cells at 0.005 uM assessed as reduction in virus-induced cytopathic effect; type: functional, organism-based
Ectromelia virus = test: Antiviral activity against Ectromelia virus infected in african green monkey Vero cells assessed as reduction in virus-induced cytopathic effect; type: functional, cell-based
Variola virus [30] = test: Antiviral activity against Variola virus NEP73-175 infected in african green monkey BSC-40 cells at 0.005 uM uM by IHC staining-based plaque reduction assay; type: functional, organism-based
Variola virus [31] = test: Antiviral activity against Variola virus SOM77-ali infected in african green monkey BSC-40 cells at 0.005 uM by IHC staining-based comet tail reduction assay; type: functional, organism-based
Variola virus [32] = test: Antiviral activity against Variola virus BSH74-sol infected in african green monkey BSC-40 cells assessed as reduction in viral plaque formation at 0.015 uM uM by IHC staining-based plaque reduction assay; type: functional
Monkeypox virus [33] = test: Antiviral activity against Monkeypox virus V78-I-3945 infected in african green monkey BSC-40 cells assessed as reduction in virus-induced cytopathic effect at 0.015 uM; type: functional, organism-based
Monkeypox virus [34] = test: Antiviral activity against Monkeypox virus 2003-USA-039 infected in african green monkey BSC-40 cells at 0.015 uM by IHC staining-based comet tail reduction assay; type: functional, organism-based
Monkeypox virus [35] = test: Antiviral activity against Monkeypox virus V1979-I-005 infected in african green monkey BSC-40 cells at 0.005 uM uM by IHC staining-based plaque reduction assay; type: functional, organism-based
Variola virus [36] = test: Antiviral activity against Variola virus NEP73-175 infected in african green monkey BSC-40 cells at 0.015 uM assessed as reduction in virus-induced cytopathic effect; type: functional, organism-based

O=C(NN1C(=O)[C@@H]2[C@@H]3C=C[C@@H]([C@H]4C[C@@H]34)[C@@H]2C1=O)c1ccc(C(F)(F)F)cc1 [TECOVIRIMAT]
0.037 µM: EC50 (Variola virus [12])
active: Activity (Monkeypox virus [1]) | Activity (Variola virus [7]) | Activity (Variola virus [9]) | Activity (Monkeypox virus [10]) | Activity (Monkeypox virus [13]) | Activity (Variola virus [15]) | Activity (Monkeypox virus [21]) | Activity (Monkeypox virus [23]) | Activity (Variola virus [24]) | Activity (Variola virus [25]) | Activity (Monkeypox virus [27]) | Activity (Monkeypox virus [28]) | Activity (Ectromelia virus) | Activity (Monkeypox virus [33]) | Activity (Monkeypox virus [34]) | Activity (Variola virus [36])
0.019 µM: EC50 (Variola virus [5])
50%: inhibition (INH) (Monkeypox virus [3]) | inhibition (INH) (Variola virus [6]) | inhibition (INH) (Variola virus [11]) | inhibition (INH) (Monkeypox virus [17]) | inhibition (INH) (Variola virus [32])
inactive: Activity (Monkeypox virus [2]) | Activity (Variola virus [4]) | Activity (Monkeypox virus [8]) | Activity (Variola virus [14]) | Activity (Variola virus [16]) | Activity (Variola virus [18]) | Activity (Monkeypox virus [19]) | Activity (Monkeypox virus [20]) | Activity (Variola virus [22]) | Activity (Monkeypox virus [26]) | Activity (Variola virus [29]) | Activity (Variola virus [30]) | Activity (Variola virus [31]) | Activity (Monkeypox virus [35])
